Assay results published in US20250206761A1, “HALOINDOLE MACROCYCLIC COMPOUNDS FOR THE TREATMENT OF CANCER” (Hoffmann-La Roche Inc., priority 2022, published 2025).

What was measured:
[1] = system: phosphorylation of ERK, KRAS G12C in NCJ-H358 cells; assay: pERK inhibition assay, KRAS G12C; type: cell-based, human; conditions: 4 hours
Procedure: (§1) This assay is to measure the ability of test compounds in inhibiting the phosphorylation of ERK, the downstream signaling of KRAS G12C in NCJ-H358 cells, KRAS G12D in AGS cells, and KRAS G12V in SW620. NCJ-H358 (ATCC-CRL5807) cells, AGS (ATCC-CRL-1739) cells, SW620 (ATCC-CCL-227) cells were all grown and maintained using RPMI-1640 medium (Thermo Fisher Scientific) with 10% fetal bovine serum and 1% penicillin/streptomycin. On the day prior to compound addition, cells were plated in tissue culture-treated 96 well plates (Corning-3699) at a density of 30,000 cell/well, 20,000 cell/well, 30,000 cell/well for NCJ-H358, AGS and SW620 respectively, and allowed for attachment overnight. Diluted compounds were then added in a final concentration of 0.5% DMSO. After 4 hours of incubation, the medium was removed, 100 μL of 4% formaldehyde was added, and the assay plates were incubated at room temperature for 20 minutes. The plates were then washed once with phosphate buffered saline (PBS), and permeabilized with 100 μL of chilled methanol for 10 minutes. Non-specific antibody binding to the plates was blocked using 50 μL 1×BSA blocking buffer (Thermo-37520, 10-fold dilution by Phosphate-Buffered Saline Tween (PBST) for at least 1 hour at room temperature.
(§2) The amount of phosphor-ERK was determined using an antibody specific for phosphorylated form of ERK. Primary antibody (pERK, CST-4370, Cell Signaling Technology) was diluted 1:300 in blocking buffer, with 50 μL aliquoted to each well, and incubated overnight at 4′° C. Cells was washed five times for 5 minutes with PBST. Secondary antibody ([…] anti-rabbit IgG, CST-7074, Cell Signaling Technology) was diluted 1:1000 in blocking buffer, and 50 μL was added to each well and incubated 1-2 hrs at room temperature. Cells was washed 5 times for 5 minutes with PBST, 100 μL TMB ELISA substrate (abcam-ab171523) were added and gently shake for 20 minutes. 50 μL stop solution (abcam-ab171529) were added, and then read the signal (OD450) by EnVision.
(§3) IC50 was determined by fitting a 4-parameter sigmoidal concentration response model.

SW620 (ATCC-CCL-227) = assay: Cell viability assay, G12V (SW620); type: cell-based, human; conditions: KRAS cell viability, SW620, 72 hrs, Cell Counting Kit-8
Procedure: (§4) The purpose of this cellular assay was to determine the effects of test compounds on the proliferation of human cancer cell lines NCI-H358 (ATCC-CRL5807) cells, AGS (ATCC-CRL-1739) cells, SW620 (ATCC-CCL-227) over a 3-day treatment period by quantifying the amount of NADPH present at endpoint using Cell Counting Kit-8.
(§5) Cells were seeded at 5,000 cells/well (NCI-H358), 2,000 cells/well (AGS) 2,000 cells/well (SW620) in 96-well assay plates (Corning-3699) and incubated overnight. On the day of the assay, diluted compounds were then added in a final concentration of 0.5% DMSO. After 72 hrs incubation, a tenth of the volume of cell counting kit 8 (Dnjindo-CK04) was added into each well. Read the signal (OD450 minus OD650) using EnVision after 2 hrs incubation. IC50 was determined by fitting a 4-parameter sigmoidal concentration response model.

[2] = molecular target: KRAS G12V binding to BRAF (Homo sapiens (Human), UniProt P01116+P62937, G12V); assay: KRAS-BRAF with CYPA (500 nM) interaction assay (TR-FRET), G12V; type: biochemical
KRAS G12V binding to BRAF, sequence (P01116-2 other isoform, or with tags, fused parts or gaps G12V): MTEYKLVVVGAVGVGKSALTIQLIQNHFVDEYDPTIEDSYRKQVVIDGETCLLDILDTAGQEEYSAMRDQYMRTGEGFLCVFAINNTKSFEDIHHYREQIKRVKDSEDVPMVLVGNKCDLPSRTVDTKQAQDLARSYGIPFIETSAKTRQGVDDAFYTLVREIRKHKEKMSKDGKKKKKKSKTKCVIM
KRAS G12V binding to BRAF, sequence (P62937 whole entry): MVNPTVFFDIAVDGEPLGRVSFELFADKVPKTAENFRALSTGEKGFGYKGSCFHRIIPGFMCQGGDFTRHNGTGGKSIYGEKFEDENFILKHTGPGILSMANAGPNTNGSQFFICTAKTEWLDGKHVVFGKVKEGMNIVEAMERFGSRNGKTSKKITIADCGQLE
Procedure: In this example, TR-FRET was also used to measure the compound or compound-CYPA dependent disruption of the KRAS G12C-BRAF complex. This protocol was also used to measure disruption of KRAS G12D or KRAS G12V binding to BRAF by a compound of the invention, respectively. In assay buffer containing 25 mM HEPES PH=7.4 (4-(2-hydroxyethyl)-1-piperazineethanesulfonic acid, Thermo, 15630080), 0.002% Tween20, 0.1% BSA, 100 mM NaCl, 5 mM MgCl2, 10 μM GMPPNP (Guanosine 5′-[β,γ-imido]triphosphate trisodium salt hydrate, Sigma, G0635), […], GMPPNP loaded 6His-KRAS proteins, and […], 6.25 nM and 1 nM, respectively. Compound was present in plate wells as a 16-point 3-fold dilution series starting at a final concentration of 10 μM and incubated for 3 hours. A mixture of MAb Anti-6His-XL665 (Cisbio, 61HISXLB) and Mab anti-GST-TB cryptate (Cisbio, 61GSTTLB) was then added at a final concentration of 6.67 nM and 0.21 nM, respectively, and the plate was incubated for an additional 1.5 hours. TR-FRET signal was read on a PHERstar FSX microplate reader (Ex320 nm, Em 665/615 nm). Compounds that facilitate disruption of the KRAS-BRAF complex were identified as those eliciting a decrease in the TR-FRET ratio relative to DMSO control wells.

[3] = system: AGS (ATCC-CRL-1739) cells; assay: Cell viability assay, G12D (AGS); type: cell-based, human; conditions: KRAS cell viability, 72 hrs, Cell Counting Kit-8
Procedure: as §4, §5

[4] = system: phosphorylation of ERK, KRAS G12V in SW620; assay: pERK inhibition assay, KRAS G12V; type: cell-based, human
Procedure: as §1, §2, §3

KRAS G12C-BRAF complex = KRAS G12C-BRAF complex (Homo sapiens (Human), UniProt P01116+P62937, G12C); assay: KRAS-BRAF with CYPA (500 nM) interaction assay (TR-FRET), G12C; type: biochemical
KRAS G12C-BRAF complex, sequence (P01116-2 other isoform, or with tags, fused parts or gaps G12C): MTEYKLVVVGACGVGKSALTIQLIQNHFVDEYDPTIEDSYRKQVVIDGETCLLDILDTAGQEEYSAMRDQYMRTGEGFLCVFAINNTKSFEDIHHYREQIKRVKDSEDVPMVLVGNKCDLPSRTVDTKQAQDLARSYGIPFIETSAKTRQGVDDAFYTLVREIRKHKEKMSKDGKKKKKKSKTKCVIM
KRAS G12C-BRAF complex, sequence (P62937 whole entry): as the sequence (P62937 whole entry) above
Procedure: (§6) In this example, TR-FRET was also used to measure the compound or compound-CYPA dependent disruption of the KRAS G12C-BRAF complex. This protocol was also used to measure disruption of KRAS G12D or KRAS G12V binding to BRAF by a compound of the invention, respectively. In assay buffer containing 25 mM HEPES PH=7.4 (4-(2-hydroxyethyl)-1-piperazineethanesulfonic acid, Thermo, 15630080), 0.002% Tween20, 0.1% BSA, 100 mM NaCl, 5 mM MgCl2, 10 μM GMPPNP (Guanosine 5′-[β,γ-imido]triphosphate trisodium salt hydrate, Sigma, G0635), […] 384-well assay plate at final concentrations of 50 nM, 6.25 nM and 1 nM, respectively. Compound was present in plate wells as a 16-point 3-fold dilution series starting at a final concentration of 10 μM and incubated for 3 hours. A mixture of MAb Anti-6His-XL665 (Cisbio, 61HISXLB) and Mab anti-GST-TB cryptate (Cisbio, 61GSTTLB) was then added at a final concentration of 6.67 nM and 0.21 nM, respectively, and the plate was incubated for an additional 1.5 hours. TR-FRET signal was read on a PHERstar FSX microplate reader (Ex320 nm, Em 665/615 nm). Compounds that facilitate disruption of the KRAS-BRAF complex were identified as those eliciting a decrease in the TR-FRET ratio relative to DMSO control wells.

[5] = system: NCI-H358 (ATCC-CRL5807) cells; assay: Cell viability assay, G12C (NCI-H358); type: cell-based, human; conditions: KRAS cell viability, NCI-H358, 72 hrs, Cell Counting Kit-8
Procedure: as §4, §5

[6] = molecular target: KRAS G12D binding to BRAF (Homo sapiens (Human), UniProt P01116+P62937, G12D); assay: KRAS-BRAF with CYPA (500 nM) interaction assay (TR-FRET), G12D; type: biochemical
KRAS G12D binding to BRAF, sequence (P01116-2 other isoform, or with tags, fused parts or gaps G12D): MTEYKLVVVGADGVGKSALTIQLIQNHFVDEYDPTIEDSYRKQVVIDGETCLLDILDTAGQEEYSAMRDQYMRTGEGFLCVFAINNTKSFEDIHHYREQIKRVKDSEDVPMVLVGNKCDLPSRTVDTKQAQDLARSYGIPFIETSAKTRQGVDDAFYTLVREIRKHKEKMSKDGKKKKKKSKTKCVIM
KRAS G12D binding to BRAF, sequence (P62937 whole entry): as the sequence (P62937 whole entry) above
Procedure: as §6

[7] = Homo sapiens, SW-620, SW620, 4 hours

IC50 [1] [nM]	IC50 (SW620 (ATCC-CCL-227)) [nM]	IC50 [3] [nM]	IC50 ([4]; SW620, 4 hours) [nM]	IC50 [5] [nM]	SMILES	IC50 [2] [nM]	IC50 (KRAS G12C-BRAF complex) [nM]	IC50 [6] [nM]	IC50 ([1]; Homo sapiens) [nM]	IC50 (SW620 (ATCC-CCL-227); Homo sapiens, SW-620) [nM]	IC50 ([3]; Homo sapiens) [nM]	IC50 [4, 7] [nM]	IC50 ([5]; Homo sapiens) [nM]
1	103	223	45	< 1	CCn1c(-c2cc(N3CCN(CC(F)(F)F)CC3)cnc2[C@H](C)OC)c2c3cc(c(F)cc31)-c1csc(n1)C[C@H](NC(=O)[C@H](C(C)C)N1CC[C@]3(CCN(C(=O)[C@H](F)Cl)C3)C1=O)C(=O)N1CCC[C@H](N1)C(=O)OCC(C)(C)C2 [Example 38, (2S)-2-[(5S)-7-[(2R)-2-chloro-2-fluoro-acetyl]-1-oxo-2,7-diazaspiro[4.4]nonan-2-yl]-N-[(7S,13S)-21-ethyl-24-fluoro-(20M)-20-[2-[(1S)-1-methoxyethyl]-5-[4-(2,2,2-trifluoroethyl)piperazin-1-yl]-3-pyridyl]-17,17-dimethyl-8,14-dioxo-15-oxa-4-thia-9,21,27,28-tetrazapentacyclo[17.5.2.1^2,5.1^9,13.0^22,26]octacosa-1(25),2,5(28),19,22(26),23-hexaen-7-yl]-3-methyl-butanamide]	910	32	3300					
					CCn1c(-c2cc(N3CCN(C)CC3)cnc2[C@H](C)OC)c2c3cc(c(F)cc31)-c1csc(n1)C[C@H](NC(=O)[C@@H](COC1CN(C(=O)[C@H](F)Cl)C1)C(C)C)C(=O)N1CCC[C@H](N1)C(=O)OCC(C)(C)C2 (atropisomer, axis not shown; (M)) [Example 40, (2R)-2-[[1-[(2R)-2-chloro-2-fluoro-acetyl]azetidin-3-yl]oxymethyl]-N-[(7S,13S)-21-ethyl-24-fluoro-(20M)-20-[2-[(1S)-1-methoxyethyl]-5-(4-methylpiperazin-1-yl)-3-pyridyl]-17,17-dimethyl-8,14-dioxo-15-oxa-4-thia-9,21,27,28-tetrazapentacyclo[17.5.2.1^2,5.1^9,13.0^22,26]octacosa-1(25),2,5(28),19,22(26),23-hexaen-7-yl]-3-methyl-butanamide]	> 10000	108	> 10000	10	63	1110	23	< 1
					CO[C@@H](C)c1ncc(N2CCN(CC(F)(F)F)CC2)cc1-c1c2c3cc(c(F)cc3n1CC(F)(F)F)-c1csc(n1)C[C@H](NC(=O)[C@H](C(C)C)N1CC[C@]3(CCN(C(=O)[C@H](F)Cl)C3)C1=O)C(=O)N1CCC[C@H](N1)C(=O)OCC(C)(C)C2 (atropisomer, axis not shown; (M)) [Example 45, (2S)-2-[(5S)-7-[(2R)-2-chloro-2-fluoro-acetyl]-1-oxo-2,7-diazaspiro[4.4]nonan-2-yl]-N-[(7S,13S)-24-fluoro-(20M)-20-[2-[(1S)-1-methoxyethyl]-5-[4-(2,2,2-trifluoroethyl)piperazin-1-yl]-3-pyridyl]-17,17-dimethyl-8,14-dioxo-21-(2,2,2-trifluoroethyl)-15-oxa-4-thia-9,21,27,28-tetrazapentacyclo[17.5.2.1^2,5.1^9,13.0^22,26]octacosa-1(25),2,5(28),19,22(26),23-hexaen-7-yl]-3-methyl-butanamide]	299	10	4970	7	121	135	20	< 1
					CO[C@@H](C)c1ncc(N2CCN(CC(F)(F)F)CC2)cc1-c1c2c3cc(c(F)cc3n1CC(F)(F)F)-c1csc(n1)C[C@H](NC(=O)[C@H](C(C)C)N1CC[C@@]3(CCN(C(=O)[C@H](F)Cl)C3)C1=O)C(=O)N1CCC[C@H](N1)C(=O)OCC(C)(C)C2 (atropisomer, axis not shown) [Example 43, (2S)-2-[(5R)-7-[(2R)-2-chloro-2-fluoro-acetyl]-1-oxo-2,7-diazaspiro[4.4]nonan-2-yl]-N-[(7S,13S)-24-fluoro-20-[2-[(1S)-1-methoxyethyl]-5-[4-(2,2,2-trifluoroethyl)piperazin-1-yl]-3-pyridyl]-17,17-dimethyl-8,14-dioxo-21-(2,2,2-trifluoroethyl)-15-oxa-4-thia-9,21,27,28-tetrazapentacyclo[17.5.2.1^2,5.1^9,13.0^22,26]octacosa-1(25),2,5(28),19,22(26),23-hexaen-7-yl]-3-methyl-butanamide]	1690	22	2200	6	171	67	44	< 1
